Data set [1] can be described thus: Drug excretion in dog urine at 1 mg/kg, iv. The settings on record: read-out: Drug excretion. Type of data set: ADME, organism-based, Canis lupus familiaris.
Data set [2] in a line: AUC (0 to 24hrs) in overnight fasted cynomolgus monkey at 3 mg/kg, po or 1 mg/kg, iv measured upto 72 hrs by LC/MS/MS analysis. Format: ADME, organism-based, Macaca fascicularis. On the set-up: time < 72 hrs, dose 3 mg/kg, route po. The following applies: in vivo.
Data set [3] can be described thus: Drug excretion in Sprague-Dawley rat urine at 1 mg/kg, iv. The following applies: read-out: Drug excretion. Format: ADME, organism-based.
The nature of data set [4]: Oral bioavailability in overnight fasted cynomolgus monkey at 3 mg/kg measured upto 72 hrs by LC/MS/MS analysis. Format: ADME, organism-based, Macaca fascicularis. The settings on record: in vivo.
Data set [5] in a line: Volume of distribution at steady state in dog at 1 mg/kg, po or 1 mg/kg, iv by LC/MS/MS analysis. Format: ADME, organism-based, Canis lupus familiaris. The following applies: in vivo.
Data set [6] is described as follows: Toxicity in Sprague-Dawley rat assessed as hemodynamic reponse by measuring increase in heart rate at 0.001 to 0.1 mg/kg/min, iv infusion administered for 15 mins by PV-loop based analysis. Format: organism-based. The settings on record: in vivo, dose 0.001-0.1 mg/kg/min.
A short description of data set [7]: AUC (0 to 24hrs) in dog at 1 mg/kg, po or 1 mg/kg, iv by LC/MS/MS analysis. Set-up: dose 1 mg/kg, route po. Type of data set: ADME, organism-based, Canis lupus familiaris. The settings on record: in vivo.
The nature of data set [8]: Cmax in dog at 1 mg/kg, po or 1 mg/kg, iv by LC/MS/MS analysis. The following applies: in vivo. Set-up: dose 1 mg/kg, route po. Type of data set: ADME, organism-based, Canis lupus familiaris.
Data set [9] is described as follows: Oral bioavailability in overnight fasted Sprague-Dawley rat at 1 mg/kg measured upto 48 hrs by LC/MS/MS analysis. Type of data set: ADME, organism-based. The settings on record: in vivo.
A short description of data set [10]: Cmax in overnight fasted Sprague-Dawley rat at 1 mg/kg, po or 1 mg/kg, iv measured upto 48 hrs by LC/MS/MS analysis. Type of data set: ADME, organism-based. On the set-up: time < 48 hrs, dose 1 mg/kg, route po. The settings on record: in vivo.
The nature of data set [11]: Volume of distribution at steady state in overnight fasted cynomolgus monkey at 3 mg/kg, po or 1 mg/kg, iv measured upto 72 hrs by LC/MS/MS analysis. Format: ADME, organism-based, Macaca fascicularis. The following applies: in vivo.
Data set [12] is described as follows: Oral bioavailability in dog at 1 mg/kg by LC/MS/MS analysis. Format: ADME, organism-based, Canis lupus familiaris. The following applies: in vivo.
Data set [13] can be described thus: AUC (0 to 24hrs) in overnight fasted Sprague-Dawley rat at 1 mg/kg, po or 1 mg/kg, iv measured upto 48 hrs by LC/MS/MS analysis. The settings on record: in vivo. On the set-up: time < 48 hrs, dose 1 mg/kg, route po. Type of data set: ADME, organism-based.
Data set [14] is described as follows: Volume of distribution in overnight fasted Sprague-Dawley rat at 1 mg/kg, po or 1 mg/kg, iv measured upto 48 hrs by LC/MS/MS analysis. Format: ADME, organism-based. The settings on record: in vivo.
Data set [15] in a line: Cmax in overnight fasted cynomolgus monkey at 3 mg/kg, po or 1 mg/kg, iv measured upto 72 hrs by LC/MS/MS analysis. Format: ADME, organism-based, Macaca fascicularis. Set-up: time < 72 hrs, dose 3 mg/kg, route po. The following applies: in vivo.
The next data set deals with T1, Apelin receptor (Homo sapiens, UniProt P35414).
T1 sequence (P35414 whole entry): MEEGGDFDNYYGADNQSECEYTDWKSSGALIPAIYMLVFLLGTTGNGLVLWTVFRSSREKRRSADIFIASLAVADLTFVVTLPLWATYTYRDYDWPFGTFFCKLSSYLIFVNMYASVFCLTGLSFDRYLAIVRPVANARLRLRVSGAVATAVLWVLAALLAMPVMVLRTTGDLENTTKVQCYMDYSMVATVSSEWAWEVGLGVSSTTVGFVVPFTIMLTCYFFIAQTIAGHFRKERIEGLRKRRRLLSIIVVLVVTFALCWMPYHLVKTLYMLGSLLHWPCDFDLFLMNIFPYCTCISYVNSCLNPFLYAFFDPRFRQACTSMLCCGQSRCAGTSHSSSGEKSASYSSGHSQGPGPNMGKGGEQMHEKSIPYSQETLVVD
Nature of the data set: Agonist activity at human APJ expressed in HEK293 cells assessed as inhibition of forskolin-stimulated cAMP production incubated for 60 mins by fluorescence based analysis.

The term AUC(0-t) denotes the area under the concentration-time curve up to a stated or last time point. By bioavailability is commonly meant the share of a dose that reaches the circulation, judged against a reference dose that is usually intravenous. In general, Cmax refers to the maximum level reached in the sampled fluid or tissue. In the case of `CCc1cccc(CC)c1-n1c(-c2ccn(C)n2)nc(=O)c(C(=O)N2CC[C@@H](c3ncc(Cl)cc3F)C2)c1O`, the dose excreted in data set [1] is less than 4%; in data set [3] it was 4%. This compound also showed an AUC(0-t) at 72 h in [2] of 2.5 µM·h. In addition, the bioavailability in data set [4] came out at 27%; in [9], 54%; in [12], 76%. The Vdss in data set [5] came out at 0.2 L/kg; in data set [11] it was 0.2 L/kg; in [14], 1.6 L/kg. Also, in data set [6], the Activity result was “Non-Toxic”. The compound further yielded an AUC(0-t) in data set [7] of 14.2 µM·h. Further, the Cmax amounted to 6500 nM in data set [8], 2200 nM in data set [10] and 1400 nM in data set [15]. Besides, in data set [13], the AUC(0-t) at 48 h stood at 3.7 µM·h.
As to `CC(CCc1ccc(O)cc1)NCCc1ccc(O)c(O)c1` (configuration not stated) [DOBUTAMINE], the Activity entry in [6] is “Toxic”.
For orientation: EC50 means the concentration at which the effect is half-maximal. On to `CCOCc1nc(=O)c(C(=O)N2CC[C@H](c3ccccc3)C2)c(O)n1-c1c(OC)cccc1OC`, for which the EC50 on Apelin receptor turned out to be 0.4 nM.

The record behind these values is ChEMBL document CHEMBL5096207, “Identification of a Hydroxypyrimidinone Compound (21) as a Potent APJ Receptor Agonist for the Potential Treatment of Heart Failure” (J Med Chem, 2021).
